Results published in US10030002B2, “Coumarin derivative for detection of cysteine and process for the synthesis thereof” (COUNCIL OF SCIENTIFIC & INDUSTRIAL RESEARCH, priority 2015, dated 2018).
Values belong to the compound of their own block, whether it stands above or below them.

How the values were obtained:
[1] = Fluorescence response of probe L to amino acids and Cys in HEPES:CH3CN (9:1), pH 7
Description: In the absence of Cys, probe L is almost non fluorescent (Φf=0.06), upon addition of Cys (0-1000 equiv.), fluorescence intensity is increased remarkably up to 7 fold with an emission band centered at 524 nm (λExt=445 nm) (FIG. 2B). […] The quantum yield of probe after the addition of Cys increases (Φf=0.32) with respect to fluorescein (Φf=0.92). The fluorescence turn on response of the probe upon addition of Cys is due to the formation of 1,4 conjugate addition product, which blocks the PET quenching by nitro olefin and also ICT process from diethylamino to nitro olefin unit. The results were in well agreement with our proposed hypothesis. […] The fluorescence intensities of the probe at 524 nm show a good linear relationship with the concentration of Cys between 0 to 1000 μM. The detection limit of Cys is determined as 23.65 nM (23.65×10^−9) based on S/N=3. (FIG. 8)
Cys being a low pKa protein thiol, at neutral pH, the thiolate/thiol ratio is higher for Cys than for Hcy and GSH, which results in greater reactivity of Cys with the probe. This could be the reason for getting selectivity to Cys over Hcy and GSH at pH 7. Also pH 7, being neutral, much suitable for biological studies.
(§1) 5×10^−3M stock solution of 7-(diethylamino)-3-((E)-4-((E)-2-nitrovinyl)styryl)-2H-chromen-2-one was prepared in CH3CN and the same solution was used for all the studies after appropriate dilution. Unless and otherwise mentioned, 10 mM and pH 7 solution of aq. HEPES buffer was used for all spectroscopic studies. All amino acid solutions of 1.0×10^−1M were prepared in HEPES buffer (pH 7). For spectroscopic measurements, stock solution of the probe was further diluted by using HEPES:CH3CN (9:1) mixture and the effective final concentration was made as 10 μM. All luminescence measurements were done using λext=445 nm with an emission slit width of 2 nm. The fluorescence quantum yield was determined according to literature method using fluorescein (in 0.1M NaOH) as reference (Φf=0.92).

[2] = Comparison of Formula (L) with prior art coumarin derivatives
Description: In still yet another embodiment, the present invention provides the comparison study of said coumarin derivatives of Formula (L) with previous prior arts coumarin derivative.

[3] = UV-Vis absorption response of probe L to amino acids and Cys
Description: With the addition of Cys (0-100 equiv.), absorption band at 468 nm gradually decreases and a new band appeared at 438 nm with a visible colour change from red to green (FIG. 1B). A hypsochromic shift (˜30 nm) with three well defined isosbestic points are observed at 445 nm, 372 nm and 325 nm. This Cys-induced hypsochromic shift indicates the suppression of ICT process from donor diethylamino unit to acceptor nitroalkene unit.
as §1

[4] = test system: amino acylase-1; assay: Detection of Cys generated enzymatically from NAC; assay type: biochemical
Description: In another preferred embodiment, the detection of Cys generated in an enzymatic reaction is studied. N-acetyl-cysteine (NAC) is employed as substrate and amino acylase-1 as an enzyme. N-acetyl-cysteine, an acetylated form of Cys, a well known pro-drug used as a cysteine supplement in treatment of glutathione replenishment, acetaminophen over dose, HIV patients etc. NAC supplement releases the Cys inside the cells. […] Amino acylases are a class of enzymes which specifically hydrolyses the N-acetylated amino acids to release the free amino acids. There are many amino acylases known for de-acetylation of acetylated amino acids, among them Amino acylase-1 is well known for its ability to hydrolyse acetylated cysteine.
Cipla made effervescent tablets of N-Acetyl-Cysteine were purchased from commercially available sources. Based on the quantity of NAC present in the tablet, 1.0×10^−1M tablet solution was prepared in 10 mM aq.
HEPES buffer solution (pH7). Enzyme solution was prepared according to the requirement by dissolving 1 mg/ml in 10 mM aq.HEPES buffer solution (pH7). A fixed concentration of NAC (200 equiv.) was added to the 10 μM probe in HEPES:CH3CN (9:1, v/v). Since 1 mg of solid enzyme contains 3301 units of protein and 1 unit can hydrolyse 1 μM of substrate, accordingly enzyme concentration was varied with respect to the substrate concentration.
10 μM of 7-(diethylamino)-3-((E)-4-((E)-2-nitrovinyl)styryl)-2H-chromen-2-one is treated with 200 equiv. of NAC and different concentration of enzyme (0-2000 units) was added and the resulting solution was incubated at 37° C. for the time period ranging from 45 to 50 mins. Initially there is no fluorescence because NAC cannot bind to probe and fluorescence is turned on gradually with time, which indicates the hydrolysis of NAC by Amino acylase-1 to release of Cys. Fluorescence intensity increases with the increase in concentration of enzyme (0 to 2000 units) as more and more amounts of Cys was released from NAC by the enzymatic activity (FIG. 6). […]

[5] = Time dependent fluorescence response of probe L with biothiols
Description: Time dependent fluorescence response of probe L or compound of Formula (L) is carried out with 200 equiv of Cys. […] (FIG. 4).

[6] = test system: whey protein; assay: Detection of cysteine in whey protein from raw milk; details: L 10 μM, whey 500 μl, NAC 0-500 μl
Description: Suitability of this reagent for specific recognition and estimation of Cys-residues present in natural milk proteins was also explored. For this study whey protein was isolated from milk. Initially some fluorescence was observed, which is due to the presence of free Cys. Then NAC tablets are used to reduce the disulfides present in whey. […] So, this reagent could be used as protein labeling agent to specifically label the Cys present in proteins.
Raw milk was subjected to fermentation and the liquid whey which was settled above after fermentation process was separated by filtration. A varying amount of whey ranging from 500 μl was added to Probe L (7-(diethylamino)-3-((E)-4-((E)-2-nitrovinyl)styryl)-2H-chromen-2-one) (10 μM) in HEPES:ACN at pH 7. Varying concentrations of N-Acetyl Cysteine (0-500 μl) was added to each of the above solution in order to hydrolyse the bound Cysteine present in whey protein (NAC solution was prepared by dissolving NAC tablets in buffer as mentioned in the enzymatic study). Luminescence changes were recorded after 45-50 minutes of incubation at room temperature. The remaining derivatives of probe L may give similar kind of response.

[7] = TLC test strips coated with probe L
Description: The same strategy is further extended to detect Cys in blood plasma and the Cys released in an enzymatic reaction as well. […] The same methodology is further extended to detect the enzymatically generated Cys from NAC.
TLC test strips were prepared by coating 5 μM of 7-(diethylamino)-3-((E)-4-((E)-2-nitrovinyl)styryl)-2H-chromen-2-one solution in acetonitrile on silica TLC plates. 5 μl of Cys (1.0×10^−1M) in 10 mM aq.HEPES buffer (pH7) was added on it, dried and the visual as well as fluorescence colour changes were observed after 5 min. The same was repeated for Hcy and GSH as well. To detect Cys in blood plasma, 20 μl of blood plasma was diluted (10 μl plasma+10 μl buffer) was added on probe quoted TLC plate. Same methodology was repeated for enzymatic reaction on TLC plate by using 10 μl of NAC and amino acylase-1 enzyme.

[8] = thiol pKa; cited from earlier work
[9] = cited from earlier work
[10] = HEPES:CH3CN (9:1), pH 7, with respect to fluorescein

fluorescence quantum yield (Φf) after the addition of Cys [1, 10]: 0.32 | fluorescence quantum yield (Φf) in the absence of Cys [1, 10]: 0.06 | reaction time at room temperature ([4]; room temperature): more than 90 min
Compound: CCN(CC)c1ccc2cc(/C=C/c3ccc(/C=C/[N+](=O)[O-])cc3)c(=O)oc2c1 [L, 7-(diethylamino)-3-((E)-4-((E)-2-nitrovinyl)styryl)-2H-chromen-2-one]
linear range of fluorescence intensity at 524 nm with concentration of Cys [1]: 0 to 1000 µM | pH dependent selectivity ([1]; Cys, Hcy and GSH with increasing pH): selectivity of probe to Cys at pH 7 | fluorescence intensity increase upon addition of Cys ([1]; L 10 μM, Cys 0-1000 equiv., emission 524 nm, λExt=445 nm): up to 7 fold | fluorescence response to amino acids (selectivity) ([1]; L 10 μM, amino acids 200 equiv., pH 7): Only Cys gives an enhancement in the fluorescence | detection limit of Cys ([1]; based on S/N=3, fluorescence at 524 nm): 23.65 nM | fluorescence response to Hcy and GSH ([1]; identical conditions, pH 7): does not give any significant changes in fluorescence | sensitivity of Cys detection (comparison) [2]: in nanomolar range. | hypsochromic shift of the absorption band upon addition of Cys ([3]; Cys 0-100 equiv., 468 nm to 438 nm): ~30 nm | absorption response to amino acids (selectivity) ([3]; L 10 μM, amino acids 100 equiv., pH 7): Only Cys gives an observable change in absorption spectra | fluorescence after addition of aminoacylase-1 ([4]; L 10 μM, NAC 200 equiv., enzyme 0-2000 units, 37° C.): fluorescent intensity gradually increases | emission at 520 nm with NAC in absence of aminoacylase-1 ([4]; L 10 μM, NAC 200 equiv., pH 7): no change in emission intensity was observed | time to completion of the reaction with Cys ([5]; 200 equiv of Cys): 25 min | time dependent fluorescence with Hcy and GSH ([5]; 200 equiv. each): no significant changes in the fluorescence observed | fluorescence with whey and NAC [6]: fluorescence intensity of L gradually increases | response of probe coated TLC plates to Hcy and GSH [7]: does not give any observable visible as well as fluorescence changes | colour change of probe coated TLC plates with Cys ([7]; 5 μM L on silica TLC, 365 nm UV lamp): changes from red to yellowish green

Compound: N[C@@H](CCS)C(=O)O [Hcy, Homocysteine]
pKa [8]: 10.0

Compound: N[C@@H](CCC(=O)N[C@@H](CS)C(=O)NCC(=O)O)C(=O)O [GSH, Glutathione]
pKa [8]: 9.5

Compound: O=C(/C=C/c1ccc2ccccc2n1)c1cc2cc3c4c(c2oc1=O)CCCN4CCC3
sensitivity or specificity of prior art probe (comparison) [9]: Detect only micromolar range

Compound: CCN(CC)c1ccc2cc(/C=C/[N+](=O)[O-])c(=O)oc2c1
sensitivity or specificity of prior art probe (comparison) [9]: Not specific to Cys
